From patent publication US11707440B2 (priority 2017, dated 2023)
Several values for one entry are separate records, joined by “and”; a condition that tells them apart may be missing. Equal entries are not always repeated. Entries after “also recorded” stand apart in the source; their conditions may differ. Marks after values point to notes of the source that are not given here.

Key:
[1] = system: female Sprague-Dawley rats, PCG/RSC of the brain; assay: 14-day repeated dose neurotoxicity study, intranasal instillation; conditions: for Clinical observation: Abnormal respiration / Clinical observation: Ataxia / Clinical observation: Chromodacryorrhea / Clinical observation: Decreased general activity / Clinical observation: Decubitus / Clinical observation: Increased general activity / Clinical observation: Salivation (out of normal) / Clinical observation: audible respiration / Clinical observation: bradypnoea: 14 days
Experimental: Esketamine HCl was administered into each nostril of female rats at a volume of 50 μl per nostril either once, twice or thrice daily by intranasal instillation for 14 consecutive days at doses of 0 (vehicle), 18, 36 or 54 mg/day. At each instillation, the second nostril was dosed immediately after the first nostril. The interval between subsequent instillations into both nostrils was 5 minutes when dosed 2 or 3 times per day.
The vehicle control group received 3 subsequent intranasal instillations of the vehicle into both nostrils (50 μL per nostril) with 5-minute intervals for 14 consecutive days.
The positive control group received a single subcutaneous injection of (+)MK-801 at 48 hours prior to the necropsy of the vehicle control and esketamine HCl-treated animals.
Each group of main study animals consisted of 12 female rats. Four satellite animals were added to the esketamine HCl-dosed groups of main study animals for TK purposes. The plasma exposure to esketamine was measured in these animals on the first and the last day of dosing at various time points up to and including 24 hours after the first instillation.
Due to logistic constraints associated with the whole body perfusion procedure of the animals at necropsy, a staggered start was applied to the study. Consequently, all 5 groups of main study animals were divided into three subgroups of 4 animals each. For each of these subgroups treatment started on a different day. The perfusion procedure is the is the same as described for the single dose study.
All vehicle- and esketamine HCl-treated animals were sacrificed at 48 hours after the last instillation. […] The brain tissue of the vehicle control-, positive control- and esketamine HCl-treated rats were processed at the same time and handled in the same way in batches of 4 animals per group.
(§1) Furthermore, clinical observations were recorded for the esketamine HCl-dosed rats on the day of dosing at 0 till 5 minutes, 15 and 30 minutes, and at 1, 2, 4, 6 hours post-dose, at the end of the working day and at 24 hours after the last instillation in the single dose study and on the first day of dosing, after one week and towards the end of the dosing period in the repeated dose study. Body weight and body weight gain were measured daily. Food consumption was measured weekly in the repeated dose study.
(§2) On the day of terminal kill, a complete physical examination was performed on the rats in fasted condition and body weight was recorded. The surviving animals were anaesthetized by inhalation of an isoflurane (IsoFlo® Zoetis, Belgium)/oxygen mixture and killed by exsanguination via the carotid artery. […] All terminally killed rats or those killed pre-terminally were perfused with 4% paraformaldehyde in the single dose study and with glutaraldehyde 3% in potassium phosphate buffer 0.09 M with 1.4% sucrose in the repeated dose study.
(§3) Brain tissue was sampled and processed routinely. The trimmed and embedded tissue was sectioned and stained with hematoxylin-eosin (HE). Histoprocessing and staining were carried out in three batches of 4 animals per group (each batch thus containing 4 animals from vehicle control-, positive control- and the three esketamine HCl-treated groups). In the single dose study duplicate brain sections were stained with Fluoro-Jade (FJ).
All tissues showing gross abnormalities were examined […]. Histopathological examination was performed on 7 levels of brain tissue according to Bolon (2013. Toxicol. Pathol. 41(7), 1028-1048) from the vehicle control-, positive control-, and high dose esketamine HCl-treated groups in the single dose study, and in all groups in the repeated dose study.

[2] = system: female Sprague-Dawley rats, PCG/RSC of the brain; assay: Single dose neurotoxicity study, intranasal instillation; conditions: for Clinical observation: Abnormal respiration / Clinical observation: Ataxia / Clinical observation: Catalepsy / Clinical observation: Chromodacryorrhea / Clinical observation: Decreased general activity / Clinical observation: Decubitus / Clinical observation: Increased general activity / Clinical observation: Narrowed palpebral fissure / Clinical observation: Piloerection / Clinical observation: Salivation (out of normal) / Clinical observation: audible respiration / Clinical observation: bradypnoea: single dose intranasal
Experimental: Esketamine HCl was instilled intranasally at doses of 0 (vehicle), 36, 54 or 72 mg (expressed as esketamine base) to female rats on a single day. The dose levels were obtained by 2, 3 or 4 subsequent intranasal instillations, respectively, into both nostrils at a volume of 50 μL per nostril. At each instillation, the second nostril was dosed immediately after the first nostril. The interval between subsequent instillations into both nostrils was 5 minutes.
The vehicle control group received 4 subsequent intranasal instillations of the vehicle into both nostrils (50 μL per nostril) with 5-minute intervals.
The injection volume was 5 mL/kg.
The vehicle- and the 36 and 54 mg-dosed groups consisted of 24 animals per group, while the 72 mg-dosed and positive control groups involved 30 animals per group. Four satellite animals were added to the esketamine HCl-dosed groups of main study animals for toxicokinetic (TK) purposes. In these animals the plasma exposure to esketamine was measured on the day of dosing at various time points up to and including 24 hours after the first instillation.
Prior to the perfusion, rats were anesthetized with isoflurane. After injection of 0.1 ml heparin, the blood of the rat was flushed out with a physiological saline solution by intraarterial insertion of a needle in the abdominal aorta. Thereafter the rat was perfused with glutaraldehyde 3% in potassium phosphate 0.09M and 1.4% sucrose. Due to logistic constraints at maximum 30 animals could undergo the whole-body perfusion procedure on a given day. Therefore, a staggered start of treatment was applied to all 5 groups of main study animals. Consequently, subgroups of 4 main study animals of the vehicle- and 36 and 54 mg-dosed groups, and 5 main study animals of the 72 mg-dosed and positive control groups, were dosed on 6 consecutive days, respectively.
The vehicle control, positive control, and esketamine HCl-dosed animals were sacrificed at either 48 hours (i.e., the first 12 or 15 rats per group) or 96 hours after the dose administration time (i.e., the last 12 or 15 rats per group). The brain tissue of the vehicle control-, positive control- and esketamine HCl-treated rats were processed at the same time and handled in the same way in batches of 4 or 5 animals per group.
as §1, §2, §3
All tissues showing gross abnormalities were examined macroscopically.

[3] = Maximum solubility of esketamine HCl; conditions: room temperature, pH 4.5; factor 1.15
Experimental: The clinical investigational product is an aqueous solution of the drug substance, esketamine hydrochloride (HCl). This formulation is administered intranasally to patients using a dual nasal spray device, which delivers one spray into each nostril. […] The formulation was stored at 37° C. for stability reasons until dosing.

CN[C@]1(c2ccccc2Cl)CCCCC1=O.Cl [esketamine HCl, (S)-2-(2-chlorophenyl)-2-(methylamino)cyclohexanone hydrochloride]
Clinical observation: Abnormal respiration ([1]; 18 mg/day intranasal): 2/12 | Clinical observation: Ataxia ([1]; 18 mg/day intranasal): 12/12*** | Clinical observation: Chromodacryorrhea ([1]; 18 mg/day intranasal): 0/12 | Clinical observation: Decreased general activity ([1]; 18 mg/day intranasal): 5/12 | Clinical observation: Decubitus ([1]; 18 mg/day intranasal): 0/12 | Clinical observation: Increased general activity ([1]; 18 mg/day intranasal): 12/12*** | Clinical observation: Salivation (out of normal) ([1]; 18 mg/day intranasal): 12/12*** | Clinical observation: audible respiration ([1]; 18 mg/day intranasal): 2/12 | Clinical observation: bradypnoea ([1]; 18 mg/day intranasal): 0/12 | Clinical observation: Abnormal respiration ([1]; 36 mg/day intranasal): 11/12*** | Clinical observation: Ataxia ([1]; 36 mg/day intranasal): 12/12*** | Clinical observation: Chromodacryorrhea ([1]; 36 mg/day intranasal): 0/12 | Clinical observation: Decreased general activity ([1]; 36 mg/day intranasal): 12/12*** | Clinical observation: Decubitus ([1]; 36 mg/day intranasal): 2/12 | Clinical observation: Increased general activity ([1]; 36 mg/day intranasal): 12/12*** | Clinical observation: Salivation (out of normal) ([1]; 36 mg/day intranasal): 12/12*** | Clinical observation: audible respiration ([1]; 36 mg/day intranasal): 6/12** | Clinical observation: bradypnoea ([1]; 36 mg/day intranasal): 11/12*** | Clinical observation: Abnormal respiration ([1]; 54 mg/day intranasal): 12/12*** | Clinical observation: Ataxia ([1]; 54 mg/day intranasal): 12/12*** | Clinical observation: Chromodacryorrhea ([1]; 54 mg/day intranasal): 0/12 | Clinical observation: Decreased general activity ([1]; 54 mg/day intranasal): 12/12*** | Clinical observation: Decubitus ([1]; 54 mg/day intranasal): 8/12*** | Clinical observation: Increased general activity ([1]; 54 mg/day intranasal): 12/12*** | Clinical observation: Salivation (out of normal) ([1]; 54 mg/day intranasal): 12/12*** | Clinical observation: audible respiration ([1]; 54 mg/day intranasal): 6/12** | Clinical observation: bradypnoea ([1]; 54 mg/day intranasal): 12/12*** | Mortality ([1]; up to 54 mg/day for 14 days): No test article related mortality occurred | Brain histopathology (neuronal necrosis, Olney lesions) ([1]; up to 54 mg/day, 48 hours after the last instillation, hydrochloride): no morphological evidence of neuronal degeneration; also recorded: no histopathological lesions were noted; also recorded: No histopathological lesions were found; also recorded: absence of neuronal necrosis | Duration of severely decreased activity with decubitus, bradypnea, ptosis and catalepsy (anesthesia) ([2]; 36 mg): 15 to 30 min | Clinical observation: Abnormal respiration ([2]; 36 mg): 22/24*** | Clinical observation: Ataxia ([2]; 36 mg): 24/24*** | Clinical observation: Catalepsy ([2]; 36 mg): 20/24*** | Clinical observation: Chromodacryorrhea ([2]; 36 mg): 0/24 | Clinical observation: Decreased general activity ([2]; 36 mg): 23/24*** | Clinical observation: Decubitus ([2]; 36 mg): 23/24*** | Clinical observation: Increased general activity ([2]; 36 mg): 24/24*** | Clinical observation: Narrowed palpebral fissure ([2]; 36 mg): 7/24** | Clinical observation: Piloerection ([2]; 36 mg): 0/24 | Clinical observation: Salivation (out of normal) ([2]; 36 mg): 23/24*** | Clinical observation: audible respiration ([2]; 36 mg): 10/24*** | Clinical observation: bradypnoea ([2]; 36 mg): 22/24*** | Clinical observation: Abnormal respiration ([2]; 54 mg): 22/24*** | Clinical observation: Ataxia ([2]; 54 mg): 24/24*** | Clinical observation: Catalepsy ([2]; 54 mg): 23/24*** | Clinical observation: Chromodacryorrhea ([2]; 54 mg): 0/24 | Clinical observation: Decreased general activity ([2]; 54 mg): 23/24*** | Clinical observation: Decubitus ([2]; 54 mg): 23/24*** | Clinical observation: Increased general activity ([2]; 54 mg): 24/24*** | Clinical observation: Narrowed palpebral fissure ([2]; 54 mg): 10/24*** | Clinical observation: Piloerection ([2]; 54 mg): 0/24 | Clinical observation: Salivation (out of normal) ([2]; 54 mg): 24/24*** | Clinical observation: audible respiration ([2]; 54 mg): 3/24 | Clinical observation: bradypnoea ([2]; 54 mg): 21/24*** | Duration of ataxia (and hyperactivity) after the decrease in activity subsided ([2]; 54 mg, hydrochloride): 1.5 to 3 h and 1 to 3 h | Duration of severely decreased activity with decubitus, bradypnea, ptosis and catalepsy (anesthesia) ([2]; 54 mg, hydrochloride): 30 minutes to one hour and 30 minutes to an hour | Duration of ataxia (and hyperactivity) after the decrease in activity subsided ([2]; 72 mg): up to 3 hours or longer | Clinical observation: Abnormal respiration ([2]; 72 mg): 30/30*** | Clinical observation: Catalepsy ([2]; 72 mg): 30/30*** | Clinical observation: Chromodacryorrhea ([2]; 72 mg): 0/30 | Clinical observation: Decreased general activity ([2]; 72 mg): 30/30*** | Clinical observation: Decubitus ([2]; 72 mg): 30/30*** | Clinical observation: Increased general activity ([2]; 72 mg): 29/30*** | Clinical observation: Narrowed palpebral fissure ([2]; 72 mg): 22/30*** | Clinical observation: Piloerection ([2]; 72 mg): 0/30 | Clinical observation: Salivation (out of normal) ([2]; 72 mg): 29/30*** | Clinical observation: audible respiration ([2]; 72 mg): 2/30 | Clinical observation: bradypnoea ([2]; 72 mg): 30/30*** | Mortality ([2]; single dose 72 mg, within 30 minutes after 4 instillations): two main study animals and two satellite TK animals died | Mortality ([2]; single dose up to 54 mg): No test article related mortality | Brain histopathology (neuronal necrosis, Olney lesions) ([2]; single dose up to 72 mg, 48 and 96 hours post-dose, hydrochloride): no morphological evidence of neuronal degeneration; also recorded: histopathological lesions were absent; also recorded: No signs of neuronal necrosis; also recorded: no neuropathological lesions were observed | Maximum solubility expressed as base [3]: 180 mg esketamine base/mL
